Results from US8815857B2 (Boehringer Ingelheim International GmbH, priority 2011, dated 2014).
In brackets after ≈: the same amount, converted by molar mass.

Columns and labels:
[1] = molecular target: T1, Recombinant human soluble guanylate cyclase (sGC), alpha 1 / beta 1 subunits, heme-free (Homo sapiens, UniProt Q02108+Q02153); experiment: Molecular assay: cGMP formation by heme-free recombinant sGC (CisBio cGMP detection kit); assay type: biochemical; conditions: 300 pM heme-free sGC, 37° C., 60 min, cGMP readout; read-out: EC50 nM, Activity of Compounds in Molecular Assay
T1 construct: histidine tag (C); made in house; host or cells: Sf9 insect cells (baculovirus coinfection)
T1 sequence (Q02108 1-690 partner): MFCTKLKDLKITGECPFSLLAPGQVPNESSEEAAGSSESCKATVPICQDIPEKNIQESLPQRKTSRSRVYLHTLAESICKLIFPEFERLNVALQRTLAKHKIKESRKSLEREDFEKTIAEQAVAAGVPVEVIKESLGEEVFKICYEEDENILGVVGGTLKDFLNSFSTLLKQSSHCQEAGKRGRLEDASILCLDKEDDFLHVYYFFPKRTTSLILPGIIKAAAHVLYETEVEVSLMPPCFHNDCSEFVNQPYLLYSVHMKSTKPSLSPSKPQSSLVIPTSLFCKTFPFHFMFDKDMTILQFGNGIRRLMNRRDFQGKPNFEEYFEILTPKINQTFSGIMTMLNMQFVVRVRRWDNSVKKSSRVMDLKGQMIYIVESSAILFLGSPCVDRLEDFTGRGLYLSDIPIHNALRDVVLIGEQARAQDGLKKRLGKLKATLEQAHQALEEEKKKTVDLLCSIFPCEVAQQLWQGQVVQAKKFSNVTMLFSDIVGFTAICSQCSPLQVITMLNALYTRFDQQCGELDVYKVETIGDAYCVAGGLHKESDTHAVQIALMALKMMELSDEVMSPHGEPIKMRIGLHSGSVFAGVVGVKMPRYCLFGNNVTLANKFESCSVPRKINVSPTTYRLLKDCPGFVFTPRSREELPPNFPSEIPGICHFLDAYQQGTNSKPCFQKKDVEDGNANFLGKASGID
T1 sequence (Q02153 1-619): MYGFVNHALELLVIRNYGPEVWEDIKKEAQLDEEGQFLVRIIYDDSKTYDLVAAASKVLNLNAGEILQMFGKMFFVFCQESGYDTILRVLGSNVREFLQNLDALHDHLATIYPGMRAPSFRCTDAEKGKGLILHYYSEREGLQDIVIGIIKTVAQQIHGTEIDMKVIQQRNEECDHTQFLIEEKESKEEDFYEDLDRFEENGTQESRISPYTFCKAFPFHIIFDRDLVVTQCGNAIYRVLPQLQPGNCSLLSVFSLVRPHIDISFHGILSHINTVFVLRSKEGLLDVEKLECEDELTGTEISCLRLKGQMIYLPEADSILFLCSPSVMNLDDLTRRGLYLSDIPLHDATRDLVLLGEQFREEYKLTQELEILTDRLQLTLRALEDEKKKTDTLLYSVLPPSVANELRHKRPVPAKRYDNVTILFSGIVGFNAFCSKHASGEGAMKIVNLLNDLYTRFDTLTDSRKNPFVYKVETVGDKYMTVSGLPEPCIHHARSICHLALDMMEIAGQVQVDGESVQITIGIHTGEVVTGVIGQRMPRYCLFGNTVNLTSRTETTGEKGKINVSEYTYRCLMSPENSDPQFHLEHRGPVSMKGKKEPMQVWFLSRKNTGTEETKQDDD
Outline: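 cGMP generated over 60 min at 37° C (pH 6.8 MOPS buffer, 50 nM GTP, 1.25 mM IBMX, 1% DMSO) by 300 pM heme-free sGC, expressed in Sf9 and heme-stripped with 0.5% Tween 20. HTRF ratios converted to nM cGMP; EC50 fitted from log concentration.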

[2] = Assessment of solubility: HT solubility in pION buffer, UV spectrophotometry; conditions: 16-19 h incubation, 1.0% DMSO; for solubility: pION system solution buffer, kinetic from dmso stock
Description: Solubility is measured by the following method.
DMSO stock samples at 10 mM concentration are prepared. […] The samples are pierced and 100 ul of thawed samples are transferred into the PCR plate for analysis. Each sample is run in duplicate at each pH (pH 4.5 and 7.4). Up to 95 samples can be run in replicate at 2 pH's+1 DMSO (blank).
Preparation of pH 4.5 and 7.4 Buffers:
• pH 4.5 buffer:—To 12.5 of system solution (pION)qs to 500 mL of distilled water (pH 2.85-2.90); adjust the pH to pH 4.5 with 0.5 N NaOH. • pH 7.4 buffer: To 12.5 of system solution (pION)qs to 500 mL of distilled water (pH 2.85-2.90); adjust the pH to pH 7.4 with 0.5N NaOH. […] Procedure: Preparation of UV Blank Plate:
75 ul of buffer (pH 7.4 or pH 4.5) is added to UV plate followed by addition of 70 ul of N-propanol. The solution is mixed and the blank spectrum is read using spectrophotometer.
Preparation of Reference UV Plate:
10 ul of each stock sample (including DMSO control) is added to 190 ul of N-propanol to prepare the reference stock plate. Reference stock samples are mixed and 5 ul of each stock sample is added to UV blank plate after it is read spectrophotometrically. The reference stock sample is mixed with blank solution in UV plate and the reference spectrum is read using UV spectrophotometer.
Preparation of Sample for Incubation:
Solubility at pH 7.4:6 ul of each stock sample (including DMSO control) is added to the storage plate containing 600 ul of pH 7.4 buffer, mixed and incubated for 16-19 h. The plate is sealed well during the incubation process. The DMSO content in the sample is 1.0%. The concentration in deep well plates is 100 uM
6 ul of each stock sample (including DMSO control) is added to the deep well plate containing 600 ul of pH 4.5 buffer, mixed and incubated for 16-19 h. The plate is sealed well during the incubation process. The DMSO content in the sample is 1.0%. The concentration in deep well plates is 100 uM
Preparation of Sample UV Plate:
At the end of the incubation period, 100 uL of sample from the storage plate is vacuum filtered using a filter plate. This step wets the filters and the filtrate is discarded. Another 200 ul of the sample from the deep well plate is vacuum filtered using the same filter block but a clean filter plate. 75 ul of the filtrate from the filter plate is transferred to a UV sample plate. 75 ul of N-propanol is added to this UV plate. The solution is mixed and the spectrum is read using the UV spectrophotometer.
The spectra collected for blank, reference and sample from 250-498 nm is analyzed using pION software. If the sample precipitates out, the solubility is reported as XX μg/ml.

[3] = molecular target: T2, human soluble guanylate cyclase alpha 1 and beta 1 subunits (sGC) stably expressed in Chinese hamster ovary cells (Homo sapiens, UniProt Q02108+Q02153); experiment: sGC cellular activator assay: cGMP in CHO cells expressing human sGC, preincubated with ODQ; assay type: cell-based; conditions: 40 microM ODQ preincubation, 30 min at room temperature, presence or absence of 50% human serum not given, read-out: EC50 nM, Activity of Compounds in Cellular Assay
T2 construct: expressed in transfected cells; host or cells: Chinese hamster ovary cells, stably transfected
T2 sequence (Q02108 1-690 partner): T1 sequence (Q02108 1-690 partner)
T2 sequence (Q02153 1-619): T1 sequence (Q02153 1-619)
Description: The sGC cellular activator assay is performed in the presence and absence of 50% human serum (HS) using Chinese hamster ovary cells that have been stably transfected to express the human soluble guanylate cyclase alpha 1 and beta 1 subunits (sGC). Cells are preincubated with 40 microM 1H-[1,2,4]oxadiazolo[4,3-a]quinoxalin-1-one (ODQ), an sGC inhibitor, for one hour in buffer containing 0.1% bovine serum albumin and 3-isobutyl-1-methylxanthine (IBMX). Concentration response curves are prepared for test compounds in DMSO. An intermediate dilution of the compounds is performed in either buffer containing IBMX or type AB HS containing IBMX. Diluted compounds are added to cells and they are incubated at room temperature for thirty minutes. cGMP is measured using a CisBio homogeneous time resolved fluorescence kit and the EC50 is calculated for each compound.

[4] = pH 4.5, pH 4.5, aqueous buffer, Solubility (pH 4.5), pH 4.5 buffer
[5] = pH 7.4, pH 7.4, aqueous buffer, Solubility (pH 7.4), pH 7.4 buffer

Row | EC50 [1] [nM] | solubility [2, 4] [µg/mL] | solubility [2, 5] [µg/mL] | Solubility (pH 4.5) ([2]; pH 4.5 buffer) [μg/mL] | EC50 [3] [nM] | SMILES
1 | 730 | 36 (≈ 67.6 µM) | > 57 | – | – | Cc1cc(CN2CCOCC2)ccc1COc1ccc(C#N)cc1-c1csc(N2CCC(C(=O)O)CC2)n1 [Compound 168]
2 | 2400 | 34 (≈ 63.6 µM) | 36 (≈ 67.3 µM) | – | – | COCCN(C)Cc1ccc(COc2ccc(C#N)cc2-c2csc(N3CCC(C(=O)O)CC3)n2)c(C)c1 [Compound 171]
3 | 5600 | 41 (≈ 78.7 µM) | > 63 | – | – | COCCNCc1ccc(COc2ccc(C#N)cc2-c2csc(N3CCC(C(=O)O)CC3)n2)c(C)c1 [Compound 172]
4 | 140 | > 64 | > 64 | – | – | Cc1ccc(OCc2ccc(CN3CCOCC3)cc2C)c(-c2csc(N3CC[C@@H](C(=O)O)[C@@H](C)C3)n2)c1 [Compound 173]
5 | 990 | > 55 | > 55 | – | – | Cc1ccc(OCc2ccc(CN3CCOCC3)cc2C)c(-c2csc(N(C)CCCC(=O)O)n2)c1 [Compound 179]
6 | 3100 | > 52 | > 52 | – | – | Cc1ccc(OCc2ccc(CN3CCOCC3)cc2C)c(-c2csc(N[C@H]3CC[C@@H](C(=O)O)C3)n2)c1 [Compound 181]
7 | 110 | 16 (≈ 26.7 µM) | 37 (≈ 61.8 µM) | – | – | Cc1ccc(OCc2ccc(CN3CCN(S(C)(=O)=O)CC3)cc2C)c(-c2csc(N3CCC(C(=O)O)CC3)n2)c1 [Compound 196]
8 | 230 | 51 (≈ 82.4 µM) | > 71 | – | – | Cc1ccc(OCc2ccc(CN3CCN(C(=O)C4CCOC4)CC3)cc2C)c(-c2csc(N3CCC(C(=O)O)CC3)n2)c1 (stereo not shown) [Compound 197]
9 | 140 | > 59 | > 59 | – | – | Cc1ccc(OCc2ccc(CN3CCN(C(=O)N(C)C)CC3)cc2C)c(-c2csc(N3CCC(C(=O)O)CC3)n2)c1 [Compound 199]
10 | 80 | 8.5 (≈ 13.5 µM) | 30 (≈ 47.8 µM) | – | – | Cc1ccc(OCc2ccc(CN3CCN(S(=O)(=O)N(C)C)CC3)cc2C)c(-c2csc(N3CCC(C(=O)O)CC3)n2)c1 [Compound 200]
11 | 960 | 36 (≈ 67.2 µM) | > 53 | – | – | Cc1ccc(OCc2ccc(CN3CCOCC3)cc2C)c(-c2csc(N[C@H]3CC[C@@H](C(=O)O)CC3)n2)c1 [Compound 201]
12 | 1000 | > 60 | > 60 | – | – | Cc1ccc(OCc2ccc(CN3CCOCC3)cc2C)c(-c2csc(N3CC(C(=O)O)C3)n2)c1 [Compound 215]
13 | – | – | – | – | 150 | Cc1ccc(OCc2ccc(CN3CCOCC3)cc2C)c(-c2csc(N3CCC4CC4(C(=O)O)CC3)n2)c1 (stereo not shown) [Compound 231]
14 | – | – | – | – | 36 | Cc1ccc(OCc2ccc(C(=O)N3CCCCC3)cc2C)c(-c2csc(N3CC[C@@H](C(=O)O)[C@H]3C)n2)c1 [Compound 240]
15 | – | – | – | – | 11 | Cc1ccc(OCc2ccc(C(=O)N3CCCCC3)cc2OC(F)(F)F)c(-c2csc(N3C[C@H]4CC[C@@H](C3)[C@H]4C(=O)O)n2)c1 [Compound 279]
16 | – | – | – | – | 10 | Cc1ccc(OCc2ccc(CN3CCN(C)C(=O)C3)cc2C)c(-c2csc(N3CCC(C(=O)O)CC3)n2)c1 [Compound 292]

The next lines start with the compound.

Row | SMILES | EC50 [1] [nM] | solubility [2, 4] [µg/mL] | solubility [2, 5] [µg/mL] | Solubility (pH 4.5) ([2]; pH 4.5 buffer) [μg/mL] | EC50 [3] [nM]
17 | Cc1ccc(OCc2ccc(C(=O)N3CCCCC3)cc2C)c(-c2csc(N3CCC(C(=O)O)C(C(F)(F)F)C3)n2)c1 (stereo not shown) [Compound 142] | 160 | 2 (≈ 3.32 µM) | > 60 | – | –
18 | Cc1cc(CN2CCS(=O)(=O)CC2)ccc1COc1ccc(Cl)cc1-c1csc(N2CCC(C(=O)O)CC2C)n1 (stereo not shown) [Compound 143] | 38 | 0.2 (≈ 0.331 µM) | 36 (≈ 59.6 µM) | – | –
19 | Cc1cc(C(=O)N2CCCCC2)ccc1COc1ccc(F)cc1-c1csc(N2CCC(C(=O)O)C(C(F)(F)F)C2)n1 (stereo not shown) [Compound 145] | 650 | 0.25 (≈ 0.413 µM) | > 60 | – | –
20 | Cc1cc(CN2CCS(=O)(=O)CC2)ccc1COc1ccc(C#N)cc1-c1csc(N2CC3CCC(C2)C3C(=O)O)n1 (stereo not shown) [Compound 146] | 2000 | 0.75 (≈ 1.24 µM) | > 60 | – | –
21 | Cc1cc(CN2CCS(=O)(=O)CC2)ccc1COc1ccc(C#N)cc1-c1csc(N2C3CCC2CC(C(=O)O)C3)n1 (stereo not shown) [Compound 147] | 1200 | 1 (≈ 1.65 µM) | > 60 | – | –
22 | Cc1cc(C(=O)N2CCCCC2)ccc1COc1ccc(C#N)cc1-c1csc(N2CCC(C(=O)O)C(C(F)(F)F)C2)n1 (stereo not shown) [Compound 148] | 4100 | 0.3 (≈ 0.49 µM) | > 61 | – | –
23 | Cc1cc(C(=O)N2CCCCC2)ccc1COc1ccc(Cl)cc1-c1csc(N2CCC(C(=O)O)C(C(F)(F)F)C2)n1 (stereo not shown) [Compound 149] | 380 | – | > 62 | 0.1 | –
24 | Cc1cc(CN2CCS(=O)(=O)CC2)ccc1COc1ccccc1-c1csc(N2CCC(C(=O)O)C(C(F)(F)F)C2)n1 (stereo not shown) [Compound 150] | 1200 | 1.4 (≈ 2.24 µM) | > 62 | – | –
25 | Cc1cc(CN2CCS(=O)(=O)CC2)ccc1COc1c(-c2csc(N3CCC(C(=O)O)CC3)n2)cccc1C(F)(F)F [Compound 151] | 9.9 | 0.15 (≈ 0.24 µM) | > 62 | – | –
26 | Cc1cc(CN2CCS(=O)(=O)CC2)ccc1COc1ccccc1-c1csc(N2CCC(C(=O)O)CC2C(F)(F)F)n1 (stereo not shown) [Compound 152] | 170 | 0.3 (≈ 0.481 µM) | > 62 | – | –
27 | Cc1ccc(OCc2ccc(CN3CCS(=O)(=O)CC3)cc2C)c(-c2csc(N3CCC(C(=O)O)CC3C(F)(F)F)n2)c1 (stereo not shown) [Compound 153] | 43 | 0.2 (≈ 0.314 µM) | > 63 | – | –
28 | Cc1ccc(OCc2ccc(CN3CCS(=O)(=O)CC3)cc2C)c(-c2csc(N3CCC(C(=O)O)C(C(F)(F)F)C3)n2)c1 (stereo not shown) [Compound 154] | 530 | 0.8 (≈ 1.25 µM) | > 63 | – | –
29 | Cc1cc(CN2CCS(=O)(=O)CC2)ccc1COc1ccc(C#N)cc1-c1csc(N2CCC(C(=O)O)C(C(F)(F)F)C2)n1 (stereo not shown) [Compound 156] | 3100 | 0.45 (≈ 0.694 µM) | > 64 | – | –
30 | Cc1cc(CN2CCS(=O)(=O)CC2)ccc1COc1ccc(Cl)cc1-c1csc(N2CCC(C(=O)O)C(C(F)(F)F)C2)n1 (stereo not shown) [Compound 157] | 940 | 0.15 (≈ 0.228 µM) | > 65 | – | –
31 | Cc1cc(CN2CCOCC2)ccc1COc1ccccc1-c1csc(N2CCC(C(=O)O)CC2)n1 [Compound 166] | 520 | > 55 | > 55 | – | –
32 | Cc1ccc(OCc2ccc(CN3CCOCC3)cc2C#N)c(-c2csc(N3CCC(C(=O)O)CC3)n2)c1 [Compound 167] | 52 | 41 (≈ 77 µM) | > 64 | – | –
33 | Cc1ccc(OCc2ccc(CN3CCOCC3)cc2C)c(-c2csc(N3C4CCC3CC(C(=O)O)C4)n2)c1 (stereo not shown) [Compound 174] | 320 | > 66 | > 66 | – | –
